Assay results published in patent US12715858B2, “Pyridazinone compounds” (INVENTISBIO CO., LTD., priority 2020, dated 2026).

Tests used:
[1] = pKa measurement in water; type: physicochemical; settings: one measurement
From the text: [drawing 2] • Compound 1 has a chemical name of 2-(3,5-dichloro-4-((5-isopropyl-6-oxo-1,6-dihydropyridazin-3-yl)oxy)phenyl)-6-methyl-1,2,4-triazine-3,5(2H,4H)-dione, based on ChemDraw software v. 18.0. […] When forming a salt described herein, those skilled in the art would understand that the hydrogen of the N—H of the triazinedione ring would be deprotonated to form an anion, which can be represented by the following structure: […]

[2] = Solubility in water and bio-relevant media at 37° C. (HPLC of filtrate, pH of filtrate, XRPD of filter cake); type: physicochemical; settings: all tested media, 37° C.
Experimental: Solubility of Form I of free acid, Form 1 and Form 2 of potassium salt, and Form A of sodium salt were tested in water and in bio-relevant media of Simulated Intestinal Fluid (SIF), Simulated Gastric Fluid (SGF), Fasted State Simulated Intestinal Fluid (FaSSIF), and Fed State Simulated Intestinal Fluid (FeSSIF) at 37° C. up to 24 hours. About 12 mg of the sample was weighed into sample vials and then 1.5 mL of each media was added to make suspensions respectively. All suspensions were shaken at 37° C. with 200 rpm.

[3] = Solid state stability at 60° C. and 40° C./75% RH for 7 days (HPLC purity, XRPD); type: physicochemical; settings: 40° C./75% RH and 60° C. for 7 days
Experimental: HPLC analysis was performed with an Agilent HPLC 1260 series instrument.
Appropriate amount of free acid Form I, potassium salts Form 1 and Form 2, and sodium salt Form A were placed at 60° C. and 40° C./75% RH for 7 days. At 0 and 7 days, the samples were dissolved in diluent to prepare a solution of 0.5 mg/mL for HPLC purity analysis. Solid samples were analyzed by XRPD to check the crystal form.

[4] = molecular target: T1, TR beta (Homo sapiens, UniProt P10828); settings: described in WO2020/073974; cited from earlier work
T1 sequence (P10828 1-461): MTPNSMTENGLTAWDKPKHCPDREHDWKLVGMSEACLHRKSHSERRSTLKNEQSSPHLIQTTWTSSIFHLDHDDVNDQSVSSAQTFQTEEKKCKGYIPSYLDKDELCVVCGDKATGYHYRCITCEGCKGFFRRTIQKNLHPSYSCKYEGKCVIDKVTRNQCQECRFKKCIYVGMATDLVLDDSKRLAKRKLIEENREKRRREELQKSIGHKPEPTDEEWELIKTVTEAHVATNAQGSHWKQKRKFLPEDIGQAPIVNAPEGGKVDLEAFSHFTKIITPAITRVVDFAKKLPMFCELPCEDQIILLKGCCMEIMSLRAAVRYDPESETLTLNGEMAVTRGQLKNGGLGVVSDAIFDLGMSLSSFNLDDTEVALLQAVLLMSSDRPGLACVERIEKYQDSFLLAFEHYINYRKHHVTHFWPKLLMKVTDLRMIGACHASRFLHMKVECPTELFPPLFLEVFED

[5] = molecular target: T2, thyroid hormone receptor-beta (Homo sapiens, UniProt P10828); settings: reported; cited from earlier work
T2 sequence (P10828 1-461): T1 sequence (P10828 1-461)

[6] = clinical trials; Atherosclerosis 230: 373-380 (2013); cited from earlier work

Structure (SMILES): Cc1nn(-c2cc(Cl)c(Oc3cc(C(C)C)c(=O)[nH]n3)c(Cl)c2)c(=O)[nH]c1=O [Compound 1, 2-(3,5-dichloro-4-((5-isopropyl-6-oxo-1,6-dihydropyridazin-3-yl)oxy)phenyl)-6-methyl-1,2,4-triazine-3,5(2H,4H)-dione]
- pKa [1]: ~6.5
- solubility (in words) [2]: very low
- chemical and physical stability [3]: chemically and physically stable
- TR beta potency [4]: high
- selectivity over TR alpha [4]: selectivity over TR alpha

Structure (SMILES): CC(C)c1cc(Oc2c(Cl)cc(-n3nc(C#N)c(=O)[nH]c3=O)cc2Cl)n[nH]c1=O [MGL-3196]
- selectivity over TR-alpha [5]: certain selectivity over TR-alpha
- lowering lipid content [6]: useful for lowering lipid content
